The assay addresses MOR (Homo sapiens, UniProt P35372). Briefly: cell-based. Set-up: expressed in transfected cells; host or cells: CHO-K1/MOR/Ga15 cells. As to conditions: for FLIPR Ca2+ AUC: area under the [Ca2+]i fluorescence response curve, up to 90 s. The protocol:
In an exemplary in vitro assay for identifying MOR agonists, cells that express a MOR are treated with a test compound in a cellular calcium fluorescent assay and calcium fluorescence intensity is then measured to determine whether the MOR is activated. A test compound is identified as a MOR agonist if the MOR is activated.
EC50 herein refers to the concentration of a compound that induces a response halfway between the baseline and the maximum after a specified exposure time. AUC refers to the area under the response curve, an indication of the compound's capability of activating a MOR.
One day before the assay, CORNING® black with clear flat bottom 96-well assay plates were coated with a 0.1 mg/mL Poly-L-Lysine solution. CHO-K1/MOR/Ga15 cells were suspended in the F12 medium and plated at a density of about 8×10^4 cells/well in […] medium. Cells were incubated in a humidified atmosphere of 10% CO2 at 37° C. overnight so as to reach an 80-90% confluent cell monolayer before the assay. On the day of the assay, 150 μL medium/well was removed from plate. […] Compounds and other reagents were dissolved in the assay buffer. […] The [Ca^2+]i fluorescence was measured up to 90 s after agonist injection.

The mark [1] stands for this setting: CHO-K1/MOR/Ga15 cells, read-out: FLIPR Ca2+ EC50.

Molecules are shown by their SMILES. Like-named read-outs stand apart in the source and are kept apart here. Where only a bound is given, the exact number is not on record here.

Sequence of MOR (P35372 whole entry): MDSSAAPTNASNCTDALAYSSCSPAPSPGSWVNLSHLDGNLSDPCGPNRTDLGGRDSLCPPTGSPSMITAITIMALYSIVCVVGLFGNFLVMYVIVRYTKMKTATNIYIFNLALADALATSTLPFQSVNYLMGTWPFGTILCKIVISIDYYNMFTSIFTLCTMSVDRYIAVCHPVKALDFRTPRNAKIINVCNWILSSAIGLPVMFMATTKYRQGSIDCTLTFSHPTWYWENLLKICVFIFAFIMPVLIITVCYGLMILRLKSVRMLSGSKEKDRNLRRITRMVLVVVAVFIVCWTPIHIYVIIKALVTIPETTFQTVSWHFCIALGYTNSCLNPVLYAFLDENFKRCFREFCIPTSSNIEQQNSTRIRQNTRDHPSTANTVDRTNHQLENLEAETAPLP

In the case of `O=C(NCC1NCCc2ccccc21)C1CCCCC1` (stereo not shown) [Compound 5, N-(1,2,3,4-Tetrahydro-1-isoquinolinylmethyl)cyclohexanecarboxamide], the “FLIPR Ca2+ AUC” value amounted to 6142. Also, under setting [1], the EC50 was determined as 6.38 µM.
On the same counts, the results for `O=C(NCC1c2ccccc2CCN1S(=O)(=O)c1ccc(Br)cc1OC(F)(F)F)C1CCCCC1` (stereo not shown) [Compound 6, N-[(2-{[4-Bromo-2-(trifluoromethoxy)phenyl]sulfonyl}-1,2,3,4-tetrahydro-1-isoquinolinyl)methyl]cyclohexanecarboxamide] are 15139 and 1.12 µM.
On the same counts, the results for `O=C(NCC1c2ccccc2CCN1S(=O)(=O)c1ccc(Br)cc1C(F)(F)F)C1CCCCC1` (stereo not shown) [Compound 7, N-[(2-{[4-Bromo-2-(trifluoromethyl)phenyl]sulfonyl}-1,2,3,4-tetrahydro-1-isoquinolinyl)methyl]cyclohexanecarboxamide] are 7697 and 2.56 µM.
As for `Cc1cc(Br)ccc1S(=O)(=O)N1CCc2ccccc2C1CNC(=O)C1CCCCC1` (stereo not shown) [Compound 8, N-({2-[(4-Bromo-2-methylphenyl)sulfonyl]-1,2,3,4-tetrahydro-1-isoquinolinyl}methyl)cyclohexanecarboxamide], the “FLIPR Ca2+ AUC” value is recorded as 3757. Also, the EC50 under setting [1] is less than 10 µM. In addition, the concentration for a half-maximal effect (EC50) (FLIPR Ca2+ EC50, CHO-K1/MOR/Ga15 cells) worked out at 6.27 µM.
As to `O=C(NCC1c2ccccc2CCN1S(=O)(=O)c1ccc(Br)cc1)C1CCCCC1` (stereo not shown) [Compound 9, N-({2-[(4-Bromophenyl)sulfonyl]-1,2,3,4-tetrahydro-1-isoquinolinyl}methyl)cyclohexanecarboxamide], the “FLIPR Ca2+ AUC” value stood at 6103. Also, the EC50 under setting [1] stood at 8.82 µM.
With `O=C(NCC1c2ccccc2CCN1S(=O)(=O)c1ccc(Br)cc1Br)C1CCCCC1` (stereo not shown) [Compound 10, N-({2-[(2,4-Dibromophenyl)sulfonyl]-1,2,3,4-tetrahydro-1-isoquinolinyl}methyl)cyclohexanecarboxamide], the “FLIPR Ca2+ AUC” value turned out to be 7023. Moreover, the EC50 under setting [1] came to 3.31 µM.
For `O=C(NCC1c2ccccc2CCN1S(=O)(=O)c1ccc(Br)cc1Cl)C1CCCCC1` (stereo not shown) [Compound 11, N-({2-[(4-Bromo-2-chlorophenyl)sulfonyl]-1,2,3,4-tetrahydro-1-isoquinolinyl}methyl)cyclohexanecarboxamide], the 50% effective concentration (EC50) came out at 5.61 µM and the “FLIPR Ca2+ AUC” value was determined as 7597.
In the case of `O=C(NCC1c2ccccc2CCN1S(=O)(=O)c1ccc(Br)cc1F)C1CCCCC1` (stereo not shown) [Compound 12, N-({2-[ (4-Bromo-2-fluorophenyl)sulfonyl]-1,2,3,4-tetrahydro-1-isoquinolinyl}methyl)cyclohexanecarboxamide], the “FLIPR Ca2+ AUC” value is given as 7271. The 50% effective concentration (EC50) under setting [1] amounted to 9.61 µM.
Taken in the same sequence, the figures for `O=C(NCC1c2ccccc2CCN1S(=O)(=O)c1ccccc1OC(F)(F)F)C1CCCCC1` (stereo not shown) [Compound 13, N-[(2-{[2-(Trifluoromethoxy)phenyl]sulfonyl}-1,2,3,4-tetrahydro-1-isoquinolinyl)methyl]cyclohexanecarboxamide] were 5152 and 3.31 µM.
On the same counts, the results for `COc1ccccc1S(=O)(=O)N1CCc2ccccc2C1CNC(=O)C1CCCCC1` (stereo not shown) [Compound 14, N-({2-[(2-Methoxyphenyl)sulfonyl]-1,2,3,4-tetrahydro-1-isoquinolinyl}methyl)cyclohexanecarboxamide] are 3327 and 22.5 µM.
As to `O=C(NCC1c2ccccc2CCN1S(=O)(=O)c1ccc(F)cc1C(F)(F)F)C1CCCCC1` (stereo not shown) [Compound 15, N-[(2-{[4-Fluoro-2-(trifluoromethyl)phenyl]sulfonyl}-1,2,3,4-tetrahydro-1-isoquinolinyl)methyl]cyclohexanecarboxamide], the “FLIPR Ca2+ AUC” value is reported as 5153. Also, the EC50 under setting [1] stood at 5.88 µM.
Taken in the same sequence, the figures for `Cc1cc(F)ccc1S(=O)(=O)N1CCc2ccccc2C1CNC(=O)C1CCCCC1` (stereo not shown) [Compound 16, N-({2-[(4-Fluoro-2-methylphenyl)sulfonyl]-1,2,3,4-tetrahydro-1-isoquinolinyl}methyl)cyclohexanecarboxamide] were 6213 and 10 µM.
As for `O=C(NCC1c2ccccc2CCN1S(=O)(=O)c1ccc(Cl)cc1)C1CCCCC1` (stereo not shown) [Compound 17, N-({2-[(4-Chlorophenyl)sulfonyl]-1,2,3,4-tetrahydro-1-isoquinolinyl}methyl)cyclohexanecarboxamide], the EC50 is 5.97 µM and the “FLIPR Ca2+ AUC” value was determined as 6144.
Take `Cc1ccc(S(=O)(=O)N2CCc3ccccc3C2CNC(=O)C2CCCCC2)cc1` (stereo not shown) [Compound 18, N-({2-[(4-Methylphenyl)sulfonyl]-1,2,3,4-tetrahydro-1-isoquinolinyl}methyl)cyclohexanecarboxamide]: the EC50 was found to be 6.44 µM and the “FLIPR Ca2+ AUC” value is listed as 6808.
Take `COc1ccc(S(=O)(=O)N2CCc3ccccc3C2CNC(=O)C2CCCCC2)cc1` (stereo not shown) [Compound 19, N-({2-[(4-Methoxyphenyl)sulfonyl]-1,2,3,4-tetrahydro-1-isoquinolinyl}methyl)cyclohexanecarboxamide]: the “FLIPR Ca2+ AUC” value is given as 3418. Besides, the EC50 under setting [1] came out at 7.84 µM.
In the case of `CC1CCC(C(=O)NCC2c3ccccc3CCN2S(=O)(=O)c2ccc(Br)cc2OC(F)(F)F)CC1` (stereo not shown) [Compound 20, N-[(2-{[4-Bromo-2-(trifluoromethoxy)phenyl]sulfonyl}-1,2,3,4-tetrahydro-1-isoquinolinyl)methyl]-4-methylcyclohexanecarboxamide], the half-maximal effective concentration (EC50) under setting [1] was 0.97 µM.
Still for that read-out and setting: the same measure for `O=C(NCC1c2ccccc2CCN1S(=O)(=O)c1ccc(Br)cc1OC(F)(F)F)C1CCCC1` (stereo not shown) [Compound 21, N-[(2-{[4-Bromo-2-(trifluoromethoxy)phenyl]sulfonyl}-1,2,3,4-tetrahydro-1-isoquinolinyl)methyl]cyclopentanecarboxamide]: 0.81 µM.
In the case of `O=C(NCC1c2ccccc2CCN1S(=O)(=O)c1ccc(Br)cc1OC(F)(F)F)c1ccccc1` (stereo not shown) [Compound 24, N-[(2-{[4-Bromo-2-(trifluoromethoxy)phenyl]sulfonyl}-1,2,3,4-tetrahydro-1-isoquinolinyl)methyl]benzamide], the “FLIPR Ca2+ AUC” value came out at 9294. Also, the EC50 under setting [1] was determined as 5.62 µM.
Consider `O=C(NCC1c2ccccc2CCN1S(=O)(=O)c1ccc(Br)cc1OC(F)(F)F)N1CCCCC1` (stereo not shown) [Compound 25, N-[(2-{[4-Bromo-2-(trifluoromethoxy)phenyl]sulfonyl}-1,2,3,4-tetrahydro-1-isoquinolinyl)methyl]-1-piperidinecarboxamide], for which the “FLIPR Ca2+ AUC” value is 10498. For the same compound, the EC50 under setting [1] was 2.77 µM.
Taken in the same sequence, the figures for `O=C(NCC1c2ccccc2CCN1S(=O)(=O)c1ccc(Br)cc1OC(F)(F)F)N1CCCC1` (stereo not shown) [Compound 26, N-[(2-{[4-Bromo-2-(trifluoromethoxy)phenyl]sulfonyl}-1,2,3,4-tetrahydro-1-isoquinolinyl)methyl]-1-pyrrolidinecarboxamide] were 12484 and 4.34 µM.
On the same counts, the results for `O=C(NCC1c2ccccc2CCN1S(=O)(=O)c1ccc(Br)cc1OC(F)(F)F)C1CCC1` (stereo not shown) [Compound 27, N-[(2-{[4-Bromo-2-(trifluoromethoxy)phenyl]sulfonyl}-1,2,3,4-tetrahydro-1-isoquinolinyl)methyl]cyclobutanecarboxamide] are 13461 and 1.34 µM.
Taken in the same sequence, the figures for `O=C(NCC1c2ccccc2CCN1S(=O)(=O)c1ccc(Br)cc1OC(F)(F)F)C1CC1` (stereo not shown) [Compound 28, N-[(2-{[4-Bromo-2-(trifluoromethoxy)phenyl]sulfonyl}-1,2,3,4-tetrahydro-1-isoquinolinyl)methyl]cyclopropanecarboxamide] were 11880 and 5.03 µM.
On to `CC(C)(C)C(=O)NCC1c2ccccc2CCN1S(=O)(=O)c1ccc(Br)cc1OC(F)(F)F` (stereo not shown) [Compound 29, N-[(2-{[4-Bromo-2-(trifluoromethoxy)phenyl]sulfonyl}-1,2,3,4-tetrahydro-1-isoquinolinyl)methyl]-2,2-dimethylpropanamide], for which the “FLIPR Ca2+ AUC” value was 12780. Moreover, under setting [1], the EC50 came to 4.61 µM.
Regarding `O=C(NCC1NCCc2ccccc21)N1CCCCC1` (stereo not shown) [Compound 35, N-(1,2,3,4-Tetrahydro-1-isoquinolinylmethyl)-1-piperidinecarboxamide], the EC50 under setting [1] stood at 3.31 µM.
On the same count and under the same terms, the same measure for `O=C(NCC1NCCc2ccccc21)N1CCOCC1` (stereo not shown) [Compound 36, N-(1,2,3,4-Tetrahydro-1-isoquinolinylmethyl)-4-morpholinecarboxamide]: 8.08 µM.
On to `O=C(NCC1NCCc2ccccc21)N1CCCC1` (stereo not shown) [Compound 37, N-(1,2,3,4-Tetrahydro-1-isoquinolinylmethyl)-1-pyrrolidinecarboxamide], for which the “FLIPR Ca2+ AUC” value is 3480. Further, the EC50 under setting [1] came out at 4.02 µM.
On to `Cc1ccc(C(=O)NCC2NCCc3ccccc32)cc1` (stereo not shown) [Compound 38, 4-Methyl-N-(1,2,3,4-tetrahydro-1-isoquinolinylmethyl)benzamide], for which, where the note is “read-out: FLIPR Ca2+ EC50”, the EC50 was determined as 0.14 µM.
`CC1CCC(C(=O)NCC2NCCc3ccccc32)CC1` (stereo not shown) [Compound 39, 4-Methyl-N-(1,2,3,4-tetrahydro-1-isoquinolinylmethyl)cyclohexanecarboxamide]: the “FLIPR Ca2+ AUC” value came to 12657. Moreover, the EC50 under setting [1] turned out to be 1.53 µM.

The values above are taken from patent US10597378B2 (priority 2017, dated 2020).
